Entries after “also recorded” stand apart in the source; their conditions may differ.

The nature of data set [1]: Irradiation of IR-1061 dyes with DPBF, 980 nm or 1064 nm laser. The format is physicochemical. Particulars: for DPBF signal relative to a dark control: 30 minutes of irradiation, 1 W cm^-2 980 nm laser. The protocol:
Initial work was done using a set of IR-1061 derivatives: cited herein as IR-1061-pyridine and IR-1061-pyridinium.
Like IR-1061-pyridinium, IR-1061-acridinium was irradiated in CDCl3 in the presence of DPBF using a 1 W cm^−2 980 nm laser (FIG. 15(A)). As a comparison, a similar irradiation was carried out using a 1.8 W cm^−2 1064 nm laser (FIG. 16). The collective effect of irradiation wavelength and conditions are seen in FIGS. 15(A-C), and FIGS. 16-18.

Data set [2] in a line: Dye stability observations. The protocol: Unfortunately, IR-1061-pyridinium was unatable in the presence of water. In an attempt to overcome the susceptibility of IR-1061-pyridinium to hydration, the pyridine charge-transfer partner was exchanged for acridine, which was expected to shield the dye from water addition due to its additional bulk.
To confirm that the process was singlet oxygen-mediated, irradiation of a freeze-pump-thawed sample—devoid of oxygen—was carried out. […] To evaluate the scope of the reaction, the dye was irradiated in an array of deuterated solvents.

The nature of data set [3]: Irradiation of IR-1061 dyes with DPBF, 980 nm or 1064 nm laser. The class given is physicochemical.
Data set [4] in a line: Dye solubility observations. The class given is physicochemical. Particulars: counterion exchanged from BF4- to BarF-. The method, then: ICG is a NIR-absorbing heptamethine dye that has the potential of generating singlet oxygen upon irradiation and has a λmax ranging from 780-810 nm depending on the context. […] BAC along with other cationic surfactants (alkyl ammonium salts, polyoxyethylene alkyl amines, amide linked alkyl amines, alkyl imidazolines, etc.) aid in the solubility of the dye in aqueous media. […] The standard formulation used in these studies consisted of 0.05 to 5.0 mg/mL ICG and 0.01% to 0.001% BAC in solution. D2O was selected as the solvent to increase the lifetime of singlet oxygen and therefore the crosslinking capability of the species. […] Fluorinated solvents (perfluorohexane, perfluorotripentylamine, etc.) are also of interest due to their ability to dissolve more oxygen and their robust inertness.

The nature of data set [5]: Singlet oxygen generation by DPBF decay (UV-Vis), 810 nm LED. The format is physicochemical. The text has this:
To evaluate the efficiency of singlet oxygen generation by ICG and an analog (IR-820) in vitro, the singlet oxygen generation was monitored. 1,3-diphenylisobenzofuran (DPBF), a compound that decays in the presence of singlet oxygen, and singlet oxygen sensor green (SOSG), a dye that increases fluorescence in the presence of singlet oxygen, were used as markers to indicate singlet oxygen generation by ICG and IR-820. […] For SOSG analysis, the fluorescence turn-on in H2O and D2O was compared to that observed when riboflavin—an FDA approved dye used in conjunction with UV light to treat keratoconus (corneal expansion)—was usedIn all cases, an increase in fluorescence emission at 525 nm was observed (using a 488nm excitation).

A short description of data set [6]: Singlet oxygen sensor green (SOSG) fluorescence measurements. Particulars: dye 0.1 mg/mL; 3 mW at 365 nm; 488 nm excitation. The format is physicochemical. The protocol:
Singlet oxygen sensor green (SOSG) is a common reagent for measuring singlet oxygen generation in aqueous systems. The marker becomes more fluorescent as singlet oxygen is generated. All time measurements were done in triplicate (100 μL aliquots from an irradiated sample). A Molecular Devices Flexstation was used to read out the fluorescence measurements with the excitation/emission at 488/525 nm.
SOSG fluorescence turn on was initially measured using riboflavin as a point of comparison for the efficacy of ICG irradiations. Measurements used a dye concentration of 0.1 mg/mL and the irradiation the parameters (3 mW at 365 nm) used in the FDA approved procedure for keratoconus (corneal expansion). The mixture was stirred during irradiation.
Stocks of the ICG formulations (both H2O and D2O) were made to be 1 mg/mL ICG and 0.01% benzalkonium chloride (BAC). These were diluted to a dye concentration of 0.1 mg/mL for the SOSG tests with no adjustments for the BAC. The sample was irradiated with 810 nm light at 200 mW and stirred throughout the irradiation.

In another data set the test system is porcine sclera. The settings on record: treated with UV light and riboflavin; previous work; cited from earlier work.
The mark [7] stands for this setting: deuterated polar aprotic solvents, such as DMSO.
Setting [8] is: water (D2O with 7.5% DMSO-D6), 980 nm.

On to `ClC1=C(/C=C/c2cc(-c3ccccc3)[s+]c(-c3ccccc3)c2)CCC/C1=C\C=C1C=C(c2ccccc2)SC(c2ccccc2)=C1` [IR-1061], for which, in data set [1], the “DPBF signal relative to a dark control” value is given as “no significant changes”.

Turning to `C(/C=C1\CCCC(/C=C/c2cc(-c3ccccc3)[s+]c(-c3ccccc3)c2)=C1[n+]1ccccc1)=C1C=C(c2ccccc2)SC(c2ccccc2)=C1` [IR-1061-pyridinium], the “DPBF signal relative to a dark control” value in data set [1] is “significant decrease”. The “stability in the presence of water” value in data set [2] was “unatable”.

In the case of `C(/C=C1\CCCC(/C=C/c2cc(-c3ccccc3)[s+]c(-c3ccccc3)c2)=C1[n+]1c2ccccc2cc2ccccc21)=C1C=C(c2ccccc2)SC(c2ccccc2)=C1` [IR-1061-acridinium], the “dye and DPBF signal during irradiation” value in data set [1] (1064 nm in CDCl3) was “Rapid bleaching of both the dye and DPBF signal”. Also, in data set [1] (freeze-pump-thawed CDCl3 (devoid of oxygen), 980 nm), the DPBF signal result is “no change”. Also, the “stability to strong acids and bases” value in data set [2] (prior to irradiation) is “dye instability and bleaching prior to irradiation”. In data set [3] (deuterated nonpolar solvents, such as toluene), the singlet oxygen generation result is recorded as “no singlet oxygen generation was observed”. Further, in data set [3] (setting [7]), the DPBF degradation entry is listed as “decreased” and the “photobleaching of the dye” value is “photobleaching”. Besides, in data set [3] (setting [8]), the DPBF degradation rates result is “comparable to those seen in chloroform” and the “photobleaching of the dye” value is reported as “high levels”.

As to `C(/C=C1\CCCC(/C=C/c2cc(-c3ccccc3)[s+]c(-c3ccccc3)c2)=C1[n+]1c2ccccc2cc2ccccc21)=C1C=C(c2ccccc2)SC(c2ccccc2)=C1` [IR-1061-Acridinium BArF], the photosensitization capability entry in data set [1] (counterion exchanged from BF4- to BarF-) is given as “marked decrease”. In addition, the solubility result in data set [4] is reported as “increase”.

As for `CC1(C)C(=CC=C2CCCC(C=CC3=[N+](CCCCS(=O)(=O)[O-])c4ccc5ccccc5c4C3(C)C)=C2Cl)N(CCCCS(=O)(=O)[O-])c2ccc3ccccc3c21.[Na+]` [IR-820], the “DPBF decay / singlet oxygen generation in D2O compared to H2O” value in data set [5] (810 nm LED) is recorded as “increase; also recorded: faster decay rate”. Further, the “DPBF signal decay when irradiated” value is given as “marked increase in the signal decay” in data set [5] (D2O, 810 nm LED) and “marked increase in the signal decay” in data set [5] (H2O, 810 nm LED). Besides, the “singlet oxygen generation (DPBF analysis)” value in data set [5] (in H2O or D2O) is reported as “singlet oxygen generation was observed”.

For the molecule `Cc1cc2nc3c(=O)[nH]c(=O)nc-3n(C[C@H](O)[C@H](O)[C@H](O)CO)c2cc1C` [riboflavin], the “SOSG fluorescence emission at 525 nm” value in data set [6] is “increase”. Also, in the data set with porcine sclera, the “change in Young's Modulus of pig sclera” value was “minimal change”.

Source of the values: patent US20230173071A1, “TREATMENT OF MYOPIA AND OTHER OCULAR CONDITIONS USING SINGLET OXYGEN GENERATED FROM DYES ACTIVATED BY NEAR-INFRARED LIGHT” (California Institute of Technology, priority 2018, published 2023).
